Measurements from US20180346505A1, “MONONUCLEOTIDES HAVING A BIOREVERSIBLE DISULFIDE GROUP” (priority 2014, published 2018).
Where two headings read alike, the source gives them in different places. Blank lines part the entries; values can stand above or below the molecule they belong to.

How the values were obtained:
[1] = system: GT1b/3a NS5B chimeric replicon; test: HCV replicon assay, GT1b/3a NS5B chimeric replicon, transient transfection; assay type: cell-based, hepatitis C virus
Experimental: (§1) The antiviral activity of the test compounds was assessed in the wild type GT1b (Con1), GT1a (H77), and GT1b/2a, GT1b/3a, GT1b/4a and GT1b/5a NS5B chimeric replicons, as well as the NS5B mutant replicons listed in Table 2a and 2b.
(§2) To generate HCV NS5B chimeric replicons, the GT1 b replicon was used as a backbone with the NS5B gene replaced with the NS5B gene of GT2a, GT3a, GT4a and GT5a derived from clinical isolates. These NS5B genes were cloned into the GT1b backbone and were confirmed by sequencing.
(§3) All the replicon assays were luciferase based in Huh-7 cells, either in stable format (GT1b and GT1a) or by transient transfection by electroporation (chimeric and mutant replicons). For a standard HCV replicon assay, stable or transiently transfected Huh-7 cells were seeded in 96-well plates (5,000 cells/well), cultured in DMEM containing 10% FBS, and incubated at 37° C., 5% CO2. On the following day, test compounds were diluted with assay media and added to the appropriate wells (final DMSO concentration in the cell culture medium was 0.5%). Assay reference positive control was included in each run to ensure assay performance. Cells were incubated at 37° C., 5% CO2 for 72 hours, at which time the cells were still sub-confluent. The antiviral activity was determined by measuring replicon reporter firefly luciferase activity using Bright Glo kit in accordance with the protocol provided by the supplier (Promega). The toxicity of the test compounds was assessed by CytoTox-1 cell proliferation assay (Promega). The half maximal effective concentration (EC50) and the half maximal toxic concentration (TC50) values were calculated using the GraphPad Prism software.

[2] = Nucleoside phosphoester stability in simulated intestinal fluid; assay type: in vitro ADME
Experimental: Test compounds at 2 μM were incubated at 37° C. with simulated intestinal fluid (SIF), which contains 0.68% (w/v) monobasic potassium phosphate and 1% (w/v) pancreatin in ultra-pure water (pH 6.8). Duplicate samples were used. Samples were removed at 0, 15, 30, 60, 120, 360 and 1440 min, immediately mixed with cold acetonitrile containing an internal standard (IS), and stored at −80° C. before analysis. Chlorambucil was used as a positive control. Samples were analyzed by a LC/MS/MS method, and disappearance of test compound was assessed by comparison of peak area ratios of analyte/IS and reported as % test compound remaining at each time point.

[3] = Nucleoside phosphoester stability in simulated gastric fluid; assay type: in vitro ADME; conditions: simulated gastric fluid pH 1.2, 2 μM, 37° C.
Experimental: Test compounds at 2 μM were incubated at 37° C. with simulated gastric fluid (SGF, 0.2% (w/v) sodium chloride in 0.7% (v/v) hydrochloric acid, deionized water, 0.3% pepsin (w/v), pH 1.2). Duplicate samples were used. Samples were removed at 0, 15, 30, 60, 120, 360 and 1440 min, immediately mixed with cold acetonitrile containing internal standard (IS), and stored at −80° C. before analysis. Omeprazole was used as a positive control. Samples were analyzed by LC/MS/MS method, and disappearance of test compound was assessed by comparison of peak area ratios of analyte/IS and reported as % test compound remaining at each time point.

[4] = system: GT1b (Con1) HCV replicon; test: HCV replicon assay, wild type GT1b (Con1), luciferase based, stable format; assay type: cell-based, hepatitis C virus; conditions: Huh-7 cells
Experimental: as §1, §3

[5] = system: Huh-7 cells; test: Toxicity by CytoTox-1 cell proliferation assay (TC50) and selectivity index; assay type: cell-based; conditions: TC50 by CytoTox-1 cell proliferation assay over replicon EC50, Huh-7 cells
Experimental: as §3

[6] = system: GT1b/4a NS5B chimeric replicon; test: HCV replicon assay, GT1b/4a NS5B chimeric replicon, transient transfection; assay type: cell-based, hepatitis C virus; conditions: read-out: GT4a EC50; GT1b/4a NS5B chimeric replicon, Huh-7 cells, luciferase, 72 hours
Experimental: as §1, §2, §3

[7] = system: GT1b/2a NS5B chimeric replicon; test: HCV replicon assay, GT1b/2a NS5B chimeric replicon, transient transfection; assay type: cell-based, hepatitis C virus; conditions: read-out: GT2a EC50; GT1b/2a NS5B chimeric replicon, Huh-7 cells, luciferase, 72 hours
Experimental: as §1, §2, §3

[8] = system: GT1a (H77) HCV replicon; test: HCV replicon assay, wild type GT1a (H77), luciferase based, stable format; assay type: cell-based, hepatitis C virus; conditions: Huh-7 cells, 72 hours
Experimental: as §1, §3

[9] = system: GT1b/5a NS5B chimeric replicon; test: HCV replicon assay, GT1b/5a NS5B chimeric replicon, transient transfection; assay type: cell-based, hepatitis C virus; conditions: read-out: GT5a EC50; GT1b/5a NS5B chimeric replicon, Huh-7 cells, luciferase, 72 hours
Experimental: as §1, §2, §3

[10] = read-out: GT3a EC50, GT1b/3a NS5B chimeric replicon, Huh-7 cells, luciferase, 72 hours
[11] = Hepatitis C virus, Huh-7, 72 h, read-out: GT3a EC50, GT1b/3a NS5B chimeric replicon, Huh-7 cells, luciferase, 72 hours
[12] = Hepatitis C virus, GT1B, Huh-7, 72 h

Compound: CC(C)(C)SSc1ccccc1CCOP1(=O)OC[C@H]2O[C@@H](n3ccc(N)nc3=O)[C@](C)(F)[C@@H]2O1 (single isomer, unassigned) [Compound 9B]
- EC50 [1, 10]: 29 nM
- % Remaining ([2]; simulated gi fluid, 0 h, 2 μM, pH 6.8): 100.00%
- % Remaining ([2]; simulated gi fluid, 0.25 h, 2 μM, pH 6.8): 98.51%
- % Remaining ([2]; simulated gi fluid, 0.5 h, 2 μM, pH 6.8): 91.63%
- % Remaining ([2]; simulated gi fluid, 1 h, 2 μM, pH 6.8): 99.30%
- % Remaining ([2]; simulated gi fluid, 2 h, 2 μM, pH 6.8): 97.42%
- % Remaining ([2]; simulated gi fluid, 6 h, 2 μM, pH 6.8): 72.51%
- % Remaining ([2]; simulated gi fluid, 24 h, 2 μM, pH 6.8): 33.69%
- % Remaining ([3]; 0 min): 100.00%
- % Remaining ([3]; 15 min): 95.72%
- % Remaining ([3]; 30 min): 98.51%
- % Remaining ([3]; 60 min): 100.39%
- % Remaining ([3]; 120 min): 92.48%
- % Remaining ([3]; 360 min): 65.99%
- % Remaining ([3]; 1440 min): 21.04%
- EC50 ([4]; 72 hours): 13 nM
- Selectivity Index (TC50/EC50) [5]: >500

Compound: CC(C)(C)SSc1ccccc1CCOP1(=O)OC[C@H]2O[C@@H](n3ccc(N)nc3=O)[C@](C)(N)[C@@H]2O1 (single isomer, unassigned) [Compound 19B]
- EC50 [6]: 344 nM
- EC50 [7]: 780 nM
- EC50 [1, 10]: 1340 nM
- EC50 ([4]; 72 hours): 1030 nM
- EC50 [8]: 858 nM
- EC50 [9]: 1350 nM

Compound: CC(C)(C)SSc1ccccc1CCOP1(=O)OC[C@H]2O[C@@H](n3ccc(=O)[nH]c3=O)[C@](C)(F)[C@@H]2O1 (stereo partly shown) [Compound 7B]
- EC50 [1, 11]: 14 nM
- EC50 [4, 12]: 20 nM
- Selectivity Index (TC50/EC50) [5]: >500

Compound: CC(C)(C)SSc1ccccc1CCOP1(=O)OC[C@H]2O[C@@H](n3ccc(N)nc3=O)[C@](C)(O)[C@@H]2O1 (single isomer, unassigned) [Compound 10B]
- EC50 [1, 10]: 21 nM
- EC50 ([4]; 72 hours): 21 nM
- Selectivity Index (TC50/EC50) [5]: >500

Compound: CC(C)(C)SSCCCCOP1(=O)OC[C@H]2O[C@@H](n3ccc(=O)[nH]c3=O)[C@](C)(F)[C@@H]2O1 (single isomer, unassigned) [Compound 6B]
- EC50 ([4]; 72 hours): 730 nM
- Selectivity Index (TC50/EC50) [5]: >14

Compound: CC(C)(CCO)SSc1ccccc1CCOP1(=O)OC[C@H]2O[C@@H](n3ccc(=O)[nH]c3=O)[C@](C)(F)[C@@H]2O1 (stereo partly shown) [Compound 18A]
- EC50 [4, 12]: 50 nM
- Selectivity Index (TC50/EC50) [5]: >200

Compound: CC(C)(C)SSc1ccccc1CCOP1(=O)OC[C@H]2O[C@@H](n3cnc4c(N)nc(N)nc43)[C@](C)(O)[C@@H]2O1 (single isomer, unassigned) [Compound 16B]
- EC50 [1, 10]: 5 nM
- EC50 ([4]; 72 hours): 40 nM
- Selectivity Index (TC50/EC50) [5]: >250

Compound: CC(C)(C)SSc1ccccc1CCOP1(=O)OC[C@H]2O[C@@H](n3ccc(=O)[nH]c3=O)[C@](C)(O)[C@@H]2O1 (stereo partly shown) [Compound 8A]
- EC50 [1, 11]: 6 nM
- EC50 [4, 12]: 10 nM
- Selectivity Index (TC50/EC50) [5]: >500

Compound: O=C(O)CCCc1ccc(N(CCCl)CCCl)cc1 [Chlorambucil, reference compound]
- % Remaining ([2]; simulated intestinal fluid pH 6.8, 2 μM, 37° C., 0 min): 100.00%
- % Remaining ([2]; simulated intestinal fluid pH 6.8, 2 μM, 37° C., 15 min): 81.31%
- % Remaining ([2]; simulated intestinal fluid pH 6.8, 2 μM, 37° C., 30 min): 64.39%
- % Remaining ([2]; simulated intestinal fluid pH 6.8, 2 μM, 37° C., 60 min): 34.82%
- % Remaining ([2]; simulated intestinal fluid pH 6.8, 2 μM, 37° C., 120 min): 5.08%
- % Remaining ([2]; simulated intestinal fluid pH 6.8, 2 μM, 37° C., 360 min): 0.00%
- % Remaining ([2]; simulated intestinal fluid pH 6.8, 2 μM, 37° C., 1440 min): 0.00%

Compound: CC(C)(C)SSc1ccccc1CCOP1(=O)OC[C@H]2O[C@@H](n3ccc(N)nc3=O)[C@](C)(N)[C@@H]2O1 (single isomer, unassigned) [Compound 19A]
- EC50 [6]: 77 nM
- EC50 [7]: 151 nM
- EC50 [1, 10]: 228 nM
- EC50 ([4]; 72 hours): 177 nM
- EC50 [8]: 169 nM
- EC50 [9]: 288 nM

- % Remaining ([3]; 0 min): 100.00%
- % Remaining ([3]; 15 min): 79.48%
- % Remaining ([3]; 30 min): 66.64%
- % Remaining ([3]; 60 min): 34.79%
- % Remaining ([3]; 120 min): 33.00%
- % Remaining ([3]; 360 min): 6.17%
- % Remaining ([3]; 1440 min): 1.24%
Compound: COc1ccc2[nH]c([S+]([O-])Cc3ncc(C)c(OC)c3C)nc2c1 (stereo not shown) [Omeprazole, reference compound]

Compound: CC(C)(C)SSc1ccccc1CCOP1(=O)OC[C@H]2O[C@@H](n3ccc(N)nc3=O)[C@](C)(O)[C@@H]2O1 (single isomer, unassigned) [Compound 10A]
- EC50 [1, 11]: 41 nM
- EC50 [4, 12]: 40 nM
- Selectivity Index (TC50/EC50) [5]: >500

Compound: CC(C)(C)SSCCCCOP1(=O)OC[C@H]2O[C@@H](n3ccc(=O)[nH]c3=O)[C@](C)(F)[C@@H]2O1 (single isomer, unassigned) [Compound 6A]
- EC50 [4, 12]: 840 nM
- Selectivity Index (TC50/EC50) [5]: >12

Compound: CC(C)(C)SSc1ccccc1CCOP1(=O)OC[C@H]2O[C@@H](n3cnc4c(N)nc(N)nc43)[C@](C)(O)[C@@H]2O1 (single isomer, unassigned) [Compound 16A]
- EC50 [1, 11]: 6 nM
- EC50 [4, 12]: 20 nM
- Selectivity Index (TC50/EC50) [5]: >500
